Reference: patent publication EP0530016B1, “Piperidine derivative and pharmaceutical composition containing it” (Ajinomoto Co., Inc., priority 1991, dated 1993)

How the values were obtained:
[1] = system: platelet aggregation induced by a combination of ADP and serotonin; assay: Inhibition of the increased platelet aggregation caused by serotonin in platelet rich plasma; format: cell-based; details: Oryctolagus cuniculus; rabbit platelet rich plasma; ADP (1.5»M) and serotonin (5»M); 50% inhibition of the increased platelet aggregation caused by serotonin
Description: Blood was obtained from rabbit and was treated with 3.8% sodium citrate. Platelet rich plasma (PRP) was prepared by centrifugation at 1200 rpm for 10 min at room temperature. The platelet aggregation induced by adenosine diphosphate (ADP) (1.5»M) and by a combination of ADP (1.5»M) and serotonin (5»M) was measured. Then the concentration of piperidine derivative required to produce 50% inhibition of the increased platelet aggregation caused by serotonin compared with the control was calculated as IC50.

[2] = system: spontaneously hypertensive rats; assay: Antihypertensive effect after oral administration, tail-cuff systolic blood pressure; format: in vivo; details: dose 6 mg/kg, reduction in systolic blood pressure from basal values, male spontaneously hypertensive rats; for dSBP (mmHg) 2hr: 2hr after administration; for dSBP (mmHg) 6hr: 6hr after administration
Description: Four male spontaneously hypertensive rats (body weight 400-440g) and in which hypertension was confirmed were used. These were obtained from Charles River Japan (Kanagawa, Japan and were maintained in a pathogen free state until used.
A 5% arabic gum aqueous suspension of each sample was administered orally in a dose of 1ml per kg body weight. Systolic blood pressure after administration was measured by an indirect (tail-cuff) method. Antihypertensive effect was shown as a reduction in blood pressure (mmHg) from the basal values.

[3] = system: spontaneously hypertensive rats; assay: Antihypertensive effect after intravenous bolus injection, tail-cuff systolic blood pressure; format: in vivo; details: dose 10 mg/kg, reduction in systolic blood pressure from basal values, male spontaneously hypertensive rats
Description: Two male spontaneously hypertensive rats (body weight 400-440g) and in which hypertension was confirmed were used as test animals. These were obtained from Charles River Japan (Kanagawa, Japan) and were maintained in a pathogen free state until used.
An aqueous solution of the derivative prepared in Example 1 above in physiological saline containing 2.5% Nicolle TM and 2.5% ethanol was intravenously administered by bolus injection in a does of 1ml per 1 kg body weight. Systolic blood pressure (SBP) after administration was measured by an indirect (tail-cuff) method. The antihypertensive effect was shown as a reduction in blood pressure (mmHg) from the basal values.

## NS(=O)(=O)c1ccc(C=CCN2CCC(=C3c4ccccc4C=Cc4ccccc43)CC2)cc1 [Example 1, 1-(4-Aminosulfonylcinnamyl)-4-(5H-dibenzo[a,d]cyclohepten-5-ylidene)piperidine]
[1]
  IC50: 200 nM
[2]
  dSBP (mmHg) 2hr: -37 mmHg
  dSBP (mmHg) 6hr: -48 mmHg
[3]; 0.5hr after administration
  dSBP (mmHg) 0.5hr: -83 mmHg
[3]; 4hr after administration
  dSBP (mmHg) 4hr: -95 mmHg

## NS(=O)(=O)c1ccc(C=CCN2CCC(=C3c4ccccc4CSc4ccccc43)CC2)cc1 [Example 2, 11-[1-(4-Aminosulfonylcinnamyl)-4-piperidinylidene]-6,11-dihydrodibenzo[b,e]thiepin]
[1]
  IC50: 251 nM
[2]
  dSBP (mmHg) 2hr: -31 mmHg
  dSBP (mmHg) 6hr: -43 mmHg
